Results on two molecules are retold here after the NIST ThermoML archive (doi:10.1016/j.fluid.2006.01.017).

Numbers after ± are expanded uncertainties.

Data set [1] can be described thus: refractive index (Na D-line) (dimensionless). To be noted: 293.2 K; 101.33 kPa; Liquid; Standard Abbe refractometry.
For data set [2] the following is noted: 293.2 K; 101.33 kPa; Liquid.

As for `CCO` [ethanol], in data set [1], the refractive index – broadly, a measure of how strongly the sample bends light – turned out to be 1.36 ± 0.0004.

Regarding `CCOC(C)=O` [ethyl acetate], in data set [2], the mass density (usually mass per unit of volume) is given as 900.6 ± 0.3 kg/m3. In addition, the refractive index in data set [1] was found to be 1.3702 ± 0.0004.
